{
  "source": "patent US9987253B2",
  "about": "“Cannabinoid receptor antagonists/inverse agonists useful for treating metabolic disorders, including obesity and diabetes” (Jenrin Discovery, priority 2012, dated 2018)",
  "origin": "cited, not measured here",
  "conditions": "type 2 diabetes patients not treated with other anti-diabetic medications, six months, baseline 7.9",
  "data": [
    {"smiles": "Cc1c(C(=O)NN2CCCCC2)nn(-c2ccc(Cl)cc2Cl)c1-c1ccc(Cl)cc1", "note": "[rimonabant]", "values": [
      {"measurement": "HbA1c levels lowered", "result": 0.8, "unit": "%"}
    ]}
  ]
}
